Test [1] has as its target CDK4/cyclin D1 (Homo sapiens (Human), UniProt P11802). In words: CDK4/cyclin D1 enzymatic activity assay (TR-FRET, phosphorylation of pRb at Ser780). To be noted: 0.3 nM CDK4/cyclin D1, 150 nM biotin-pRb (773-924), 3 μM ATP, 60 min at 22° C.; read-out: Biochemical CDK4 enzyme IC50. The test is classed as biochemical. The method, boiled down:
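Phosphorylation at pRb Ser780, detected by TR-FRET, gave IC50s and kinetics. Enzyme: baculovirus/Sf21-expressed human CDK4/cyclin D1. ATP at 3 μM initiated the reaction; EDTA (pH 8.0) stopped it after 60 min at 22° C.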
A general note: TR-FRET usually uses a lanthanide donor and a delayed reading to cut background.

In test [2] the test system is phosphorylation of pRb at the Ser780 site in JeKo-1 mantle cell lymphoma cells. In words: CDK4 cellular assay: ELISA of pRb phosphorylation at Ser780 in JeKo-1 cells. The class given is cell-based.
Test [3] addresses CDK1/cyclin B (Homo sapiens (Human), UniProt P06493). In words: CDK1/cyclin B enzymatic activity assay (IMAP-FP). The test is classed as biochemical. From the text: CDK1/Cyclin B Enzymatic Activity Assay
A 384-well microtiter IMAP-FP™ (Molecular Devices Trade Mark Technology) endpoint assay was used for CDK1/cyclin B kinase activity measurements. The same assay was used for IC50 determination of small molecule inhibitors.

Setting [4] is: Homo sapiens, JeKo-1, JeKo-1 cells, p-pRb % inhibition adjusted with total pRb levels, read-out: Normalized cellular ppRb inhibition IC50.
Where [5] appears, read: Homo sapiens, JeKo-1, JeKo-1 cells, p-pRb Ser780 ELISA, non-normalized, read-out: Cellular ppRb inhibition IC50.
Where [6] appears, read: […] CDK1/cyclin B, 100 nM Tamra Histone-H1 peptide, 20 μM ATP, 120 min at room temperature, read-out: Biochemical CDK1 enzyme IC50.
Where [7] appears, read: Homo sapiens, JeKo-1 cells, p-pRb % inhibition adjusted with total pRb levels, read-out: Normalized cellular ppRb inhibition IC50.
Setting [8] is: Homo sapiens, JeKo-1 cells, p-pRb Ser780 ELISA, non-normalized, read-out: Cellular ppRb inhibition IC50.

What is called IC50 is the concentration needed to halve the response being measured.

Where two headings read alike, the source gives them in different places.

Sequence of CDK4/cyclin D1 (P11802 whole entry): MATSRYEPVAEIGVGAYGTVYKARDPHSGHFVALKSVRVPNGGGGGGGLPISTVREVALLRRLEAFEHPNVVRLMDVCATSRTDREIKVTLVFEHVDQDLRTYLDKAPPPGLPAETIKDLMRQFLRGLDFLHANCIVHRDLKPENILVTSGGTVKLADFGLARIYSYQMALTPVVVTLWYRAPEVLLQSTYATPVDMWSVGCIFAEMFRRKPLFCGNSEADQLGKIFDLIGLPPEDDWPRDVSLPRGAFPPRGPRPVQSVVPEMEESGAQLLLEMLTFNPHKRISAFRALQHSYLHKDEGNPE
Sequence of CDK4/cyclin D1 (P24385 whole entry partner): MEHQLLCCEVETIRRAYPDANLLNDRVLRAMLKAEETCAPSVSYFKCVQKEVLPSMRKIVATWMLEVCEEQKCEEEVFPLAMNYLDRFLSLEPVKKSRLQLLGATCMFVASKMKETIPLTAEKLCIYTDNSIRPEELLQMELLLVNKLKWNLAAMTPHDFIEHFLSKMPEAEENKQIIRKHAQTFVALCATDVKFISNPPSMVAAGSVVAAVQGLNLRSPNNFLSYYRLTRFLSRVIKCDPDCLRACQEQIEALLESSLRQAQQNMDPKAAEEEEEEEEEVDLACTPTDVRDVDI
Sequence of CDK1/cyclin B (P06493 whole entry, species assumed): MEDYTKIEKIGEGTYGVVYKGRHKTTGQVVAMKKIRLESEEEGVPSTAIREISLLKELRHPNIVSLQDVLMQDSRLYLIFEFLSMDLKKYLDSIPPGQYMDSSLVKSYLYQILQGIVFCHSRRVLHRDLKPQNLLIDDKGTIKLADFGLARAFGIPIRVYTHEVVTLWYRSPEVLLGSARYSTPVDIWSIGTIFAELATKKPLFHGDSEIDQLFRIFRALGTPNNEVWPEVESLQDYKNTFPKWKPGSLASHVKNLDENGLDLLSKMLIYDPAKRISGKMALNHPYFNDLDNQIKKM
Sequence of CDK1/cyclin B (P14635 whole entry partner, species assumed): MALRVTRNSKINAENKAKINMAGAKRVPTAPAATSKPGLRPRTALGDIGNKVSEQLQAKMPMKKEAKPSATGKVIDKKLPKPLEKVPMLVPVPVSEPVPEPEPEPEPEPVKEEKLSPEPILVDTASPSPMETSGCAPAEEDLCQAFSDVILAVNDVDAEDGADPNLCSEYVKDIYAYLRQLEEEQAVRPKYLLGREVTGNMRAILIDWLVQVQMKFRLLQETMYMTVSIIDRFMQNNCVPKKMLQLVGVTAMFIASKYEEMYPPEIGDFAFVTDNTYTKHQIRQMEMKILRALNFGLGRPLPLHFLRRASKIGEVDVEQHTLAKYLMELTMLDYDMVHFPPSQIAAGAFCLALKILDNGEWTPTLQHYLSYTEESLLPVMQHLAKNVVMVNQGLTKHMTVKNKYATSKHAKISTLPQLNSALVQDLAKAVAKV

With `[2H]C([2H])([2H])N1C2CCC1CN(C(=O)c1ccc(Nc3ncc4cc(C(=O)N(C)C)n(C5CCCC5)c4n3)nc1)C2` [Example 63, 7-Cyclopentyl-2-[5-(8-methyl-d3-3,8-diaza-bicyclo[3.2.1]octane-3-carbonyl)-pyridin-2-ylamino]-7H-pyrrolo[2,3-d]pyrimidine-6-carboxylic acid dimethylamide], the IC50 was 0.011 to 0.024 µM in test [1], 0.04 to 0.242 µM in test [2] (setting [4]), 0.034 to 0.078 µM in test [2] (setting [5]) and over 15 µM in test [3].
Regarding `CN(C)C(=O)c1cc2cnc(Nc3ccc(N4CC5CCC(C4)N5)nn3)nc2n1C1CCCCC1` [Example 126, 7-Cyclohexyl-2-[6-(3,8-diaza-bicyclo[3.2.1]oct-3-yl)-pyridazin-3-ylamino]-7H-pyrrolo[2,3-d]pyrimidine-6-carboxylic acid dimethylamide], the IC50 was 0.01 to 0.031 µM in test [1], 0.045 to 0.049 µM in test [2] (setting [4]), 0.023 to 0.032 µM in test [2] (setting [5]) and over 15 µM in test [3] (setting [6]).
As for `CN(C)C(=O)c1cc2cnc(Nc3ccc(C(=O)N4CC5CCC4C5O)cn3)nc2n1C1CCCCCC1` [Example 7, 7-cycloheptyl-2-(5-((1R,4R,7R)-7-hydroxy-2-azabicyclo[2.2.1]heptane-2-carbonyl)pyridin-2-ylamino)-N,N-dimethyl-7H-pyrrolo[2,3-d]pyrimidine-6-carboxamide], the IC50 in test [1] stood at 0.021 µM; in test [2] (setting [7]), 0.288 µM; in test [2] (setting [8]), 0.127 µM; in test [3] (setting [6]) it was 17.6 µM.
For `CN1C[C@@H]2CC(=O)N(c3ccc(Nc4ncc5cc(C(=O)N(C)C)n(C6CCCCCC6)c5n4)nc3)C[C@@H]2C1` [Example 93, 7-cycloheptyl-N,N-dimethyl-2-(5-((3aS,7aR)-2-methyl-6-oxotetrahydro-1H-pyrrolo[3,4-c]pyridin-5(6H,7H,7aH)-yl)pyridin-2-ylamino)-7H-pyrrolo[2,3-d]pyrimidine-6-carboxamide], the IC50 was under 0.005 µM in test [1], 0.02 µM in test [2] (setting [4]), 0.008 µM in test [2] (setting [5]) and over 15 µM in test [3] (setting [6]).
Take `CN(C)C(=O)c1cc2cnc(Nc3ccc(C(=O)N4C[C@H]5C[C@@H]4CN5)cn3)nc2n1C1CCCC1` [Example 49, 7-Cyclopentyl-2-[5-((R,R)-2,5-diaza-bicyclo[2.2.1]heptane-2-carbonyl)-pyridin-2-ylamino]-7H-pyrrolo[2,3-d]pyrimidine-6-carboxylic acid dimethylamide]: the IC50 in test [1] was 0.045 µM; in test [2] (setting [4]), 0.052 to 0.431 µM; in test [2] (setting [5]), 0.044 to 0.231 µM; in test [3] (setting [6]), over 15 µM.
On to `CCOC(=O)N1C2CCC1CN(C(=O)c1ccc(Nc3ncc4cc(C(=O)N(C)C)n(C5CCCC5)c4n3)nc1)C2` [Example 64, 3-[6-(7-Cyclopentyl-6-dimethylcarbamoyl-7H-pyrrolo[2,3-d]pyrimidin-2-ylamino)-pyridine-3-carbonyl]-3,8-diaza-bicyclo[3.2.1]octane-8-carboxylic acid ethyl ester], for which the IC50 was 0.072 to 0.179 µM in test [1], 0.771 to 2.2 µM in test [2] (setting [7]), 0.323 to 0.466 µM in test [2] (setting [8]) and over 15 µM in test [3] (setting [6]).
On the same counts, the results for `CN(C)C(=O)c1cc2cnc(Nc3ccc(N4CC5COCC(CC4=O)N5)cn3)nc2n1C1CCCC1` (centres unmarked) [Example 145, 7-Cyclopentyl-2-[5-(4-oxo-8-oxa-3,10-diaza-bicyclo[4.3.1]dec-3-yl)-pyridin-2-ylamino]-7H-pyrrolo[2,3-d]pyrimidine-6-carboxylic acid dimethylamide] are 0.032 µM, 0.162 µM, 0.045 µM and over 15 µM.
For `CC(CO)N1C2CCC1CN(C(=O)c1ccc(Nc3ncc4cc(C(=O)N(C)C)n(C5CCCC5)c4n3)nc1)C2` (centres unmarked) [Example 35, 7-cyclopentyl-2-(5-(8-(1-hydroxypropan-2-yl)-3,8-diazabicyclo[3.2.1]octane-3-carbonyl)pyridin-2-ylamino)-N,N-dimethyl-7H-pyrrolo[2,3-d]pyrimidine-6-carboxamide], the IC50 is 0.026 µM in test [1], 0.197 µM in test [2] (setting [4]), 0.069 µM in test [2] (setting [5]) and over 15 µM in test [3] (setting [6]).
In the case of `CN(C)C(=O)c1cc2cnc(Nc3ccc(C(=O)N4CC5COCC(C4)N5)cn3)nc2n1C1CCCC1` [Example 70, 7-Cyclopentyl-2-[5-(3-oxa-7,9-diaza-bicyclo[3.3.1]nonane-7-carbonyl)-pyridin-2-ylamino]-7H-pyrrolo[2,3-d]pyrimidine-6-carboxylic acid dimethylamide], the IC50 in test [1] was 0.039 µM; in test [2] (setting [7]), 0.18 µM; in test [2] (setting [8]), 0.117 µM; in test [3] (setting [6]), over 15 µM.
As for `CN(C)C(=O)c1cc2cnc(Nc3ccc(N4CC5(CCCNC5)OC4=O)cn3)nc2n1C1CCCC1` (centres unmarked) [Example 107, 7-cyclopentyl-N,N-dimethyl-2-(5-(2-oxo-1-oxa-3,7-diazaspiro[4.5]decan-3-yl)pyridin-2-ylamino)-7H-pyrrolo[2,3-d]pyrimidine-6-carboxamide], the IC50 in test [1] was 0.009 µM; in test [2] (setting [7]), 0.037 to 0.114 µM; in test [2] (setting [8]), 0.013 to 0.049 µM; in test [3] (setting [6]), over 15 µM.
Take `CN(C)C(=O)c1cc2cnc(Nc3ccc(C(=O)N4CC5CCC(C4)N5)cn3)nc2n1C1CCCCC1` [Example 66, 7-Cyclohexyl-2-[5-(3,8-diaza-bicyclo[3.2.1]octane-3-carbonyl)-pyridin-2-ylamino]-7H-pyrrolo[2,3-d]pyrimidine-6-carboxylic acid dimethylamide]: the IC50 in test [1] was 0.004 to 0.007 µM; in test [2] (setting [4]), 0.041 µM; in test [2] (setting [5]) it was 0.038 µM; in test [3] (setting [6]), over 15 µM.
Take `CN(C)C(=O)c1cc2cnc(Nc3ccc(N4C[C@@H]5CC[C@H](CC4=O)N5C)cn3)nc2n1C1CCCC1` [Example 141, 7-Cyclopentyl-2-[5-((1S,6R)-9-methyl-4-oxo-3,9-diaza-bicyclo[4.2.1]non-3-yl)-pyridin-2-ylamino]-7H-pyrrolo[2,3-d]pyrimidine-6-carboxylic acid dimethylamide]: the IC50 in test [1] is 0.045 µM; in test [2] (setting [4]) it was 0.034 µM; in test [2] (setting [5]), 0.024 µM; in test [3] (setting [6]), over 15 µM.
Turning to `CN(C)C(=O)c1cc2cnc(Nc3ccc(C(=O)N4[C@@H]5CC[C@H]4C[C@H](O)C5)cn3)nc2n1C1CCCC1` [Example 43, 7-Cyclopentyl-2-[5-((1S,3S,5R)-3-hydroxy-8-aza-bicyclo[3.2.1]octane-8-carbonyl)-pyridin-2-ylamino]-7H-pyrrolo[2,3-d]pyrimidine-6-carboxylic acid dimethylamide], the IC50 in test [1] is 0.176 to 0.198 µM; in test [2] (JeKo-1 cells, p-pRb % inhibition adjusted with total pRb levels, read-out: Normalized cellular ppRb inhibition IC50), 0.469 to 1.28 µM; in test [2] (JeKo-1 cells, p-pRb Ser780 ELISA, non-normalized, read-out: Cellular ppRb inhibition IC50), 0.461 to 0.745 µM; in test [3] (setting [6]) it was over 15 µM.
For the compound `CN(C)C(=O)c1cc2cnc(Nc3ccc(N4C[C@@]5(CCCNCC5)OC4=O)cn3)nc2n1C1CCCC1` [Example 105, 7-Cyclopentyl-2-[5-((S)-2-oxo-1-oxa-3,8-diaza-spiro[4.6]undec-3-yl)-pyridin-2-ylamino]-7H-pyrrolo[2,3-d]pyrimidine-6-carboxylic acid dimethylamide], the IC50 was 0.012 µM in test [1], 0.1 µM in test [2] (setting [7]), 0.061 µM in test [2] (setting [8]) and over 15 µM in test [3] (setting [6]).
Consider `CN(C)C(=O)c1cc2cnc(Nc3ccc(N4CC5(CC4=O)CC4CCC(C5)N4)cn3)nc2n1C1CCCOC1` (centres unmarked) [Example 120, N,N-dimethyl-2-(5-(5′-oxo-8-azaspiro[bicyclo[3.2.1]octane-3,3′-pyrrolidine]-1′-yl)pyridin-2-ylamino)-7-(tetrahydro-2H-pyran-3-yl)-7H-pyrrolo[2,3-d]pyrimidine-6-carboxamide], for which the IC50 in test [1] is 0.066 µM; in test [2] (setting [7]) it was 1.03 µM; in test [2] (setting [8]) it was 0.677 µM; in test [3] (setting [6]) it was over 15 µM.
`CN(C)C(=O)c1cc2cnc(Nc3ccc(C(=O)N4CC5CCC(C4)N5)cn3)nc2n1[C@@H]1C[C@H]2CC[C@@H]1C2` (stereo in doubt) [Example 36, 7-(1R,2R,4S)-Bicyclo[2.2.1]hept-2-yl-2-[5-(3,8-diaza-bicyclo[3.2.1]octane-3-carbonyl)-pyridin-2-ylamino]-7H-pyrrolo[2,3-d]pyrimidine-6-carboxylic acid dimethylamide]: the IC50 in test [1] amounted to 0.003 µM; in test [2] (setting [4]) it was 0.028 µM; in test [2] (setting [5]), 0.023 µM; in test [3] (setting [6]) it was 13 µM.
In the case of `CN(C)C(=O)c1cc2cnc(Nc3ccc(N4CC5(CC6CCC(C5)N6C)OC4=O)cn3)nc2n1C1CCCC1` [Example 102, 7-cyclopentyl-N,N-dimethyl-2-(5-((1R,3r,5S)-8-methyl-2′-oxo-8-azaspiro[bicyclo[3.2.1]octane-3,5′-oxazolidine]-3′-yl)pyridin-2-ylamino)-7H-pyrrolo[2,3-d]pyrimidine-6-carboxamide], the IC50 is 0.018 µM in test [1], 0.071 µM in test [2] (setting [4]), 0.039 µM in test [2] (setting [5]) and over 15 µM in test [3] (setting [6]).
